In patent US12624018B1, “Inhibitors of RIPK2 and medical uses thereof” (Odyssey Therapeutics, Inc., priority 2022, dated 2026):
pIC50: −log10 of the molar value. Read-outs that look alike come from different tables or passages of the source.

What was measured:
RIPK2 enzyme = biological target: T1, RIPK2 enzyme (Homo sapiens, UniProt O43353); assay: RIPK2 inhibition (ADP-Glo Kinase Assay); format: biochemical; settings: RIPK2 5 nM, ATP 150 μM, MBP substrate, read-out: RIPK2 IC50
T1 construct: purchased Carna 09-128
Outline: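 Swine MBP substrate; compound and 5 nM RIPK2 first mixed for 30 min at room temperature; buffer pH 7.5 HEPES 50 mM with 10 mM MgCl2, 2 mM DTT, 1 mM EGTA, Brij-35, BSA.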

human NOD2 signaling = assay: Inhibition of human NOD2 signaling in HEK-Blue-hNOD2 cells (L18-MDP stimulated, SEAP reporter); format: cell-based; settings: NOD2 ligand stimulation, SEAP reporter, read-out: hNOD2 IC50
Outline: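 Read-out is SEAP absorbance at 620 nm after 3 h QUANTI-Blue development of supernatant from HEK293 cells carrying NOD2 and a SEAP reporter (12500/well). Cells got compound (10 points, 3-fold dilutions) and 0.5 ng/mL L18-MDP for 24 h at 37 °C; percent inhibition vs stimulated/unstimulated controls, 4-parameter IC50.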

[1] = tested on: TNF-alpha secretion in human whole blood; assay: Inhibition of TNF-alpha secretion in human whole blood (IFN-gamma primed, L18-MDP stimulated); format: cell-based; settings: L18-MDP 100 ng/mL, read-out: Human Whole Blood TNFα IC50
Protocol: Materials: Assay medium consisted of RPMI 1640 medium (catalogue number: 11875119) and 10% heat inactivated FBS (Cytvia). U-PLEX Biomarker Assay (cat #K15067L-4) to detect levels of TNF-alpha was purchased from Meso Scale Discovery. Heparinized whole blood from healthy donors/volunteers was obtained through Research Blood Components, LLC.
Test compounds were prepared into a 10 mM DMSO solution and serially diluted into 9 points using a 3-fold dilution in a 96 well plate. A 10× working stock solution of recombinant human IFN-gamma (final concentration of 10 ng/mL) was prepared in assay medium and used to prepare a 10× solution of test compound. 20 μL of 10×IFN-gamma and test compound (or DMSO control) was added to a 96-well plate. 160 μL of heparinized whole blood obtained from healthy donors was dispensed into individual wells of the 96-well plate and placed on a plate shaker (150 rpm) and incubated for 60 min at 37° C. in a CO2 incubator. Subsequently, 20 μL of L18-MDP (final concentration of 100 ng/mL) was added to the appropriate wells and further incubated for 16 hours on a plate shaker (150 rpm) at 37° C. in a CO2 incubator. The final concentration of DMSO was 0.05% (v/v) in all wells. After incubation, 100 μL of DPBS was added per well, mixed by shaking at 500 rpm for 2 minutes, followed by centrifugation (400×g for 10 minutes) and collection of supernatants. TNF-alpha in supernatants was measured using MSD immunoassay (MesoScale Discovery). 4-parametric curve fit was used to determine the test compound concentration that results in 50% reduction of TNF-alpha concentration in supernatant relative to assay controls.

[2] = biological target: T2, RIPK2 and XIAP protein-protein interaction (Homo sapiens, UniProt O43353); assay: Inhibition of the interaction of RIPK2 with XIAP (NanoBRET in HEK293T cells); format: cell-based; settings: RIPK2 HaloTag / XIAP NanoLuc, read-out: NanoBRET Scaffolding IC50
T2 construct: the N-terminus of full-length RIPK2 was appended with the HaloTag fusion protein; expressed in transfected cells; host or cells: HEK293T
Outline: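 HEK293T cells transiently co-transfected with HaloTag-RIPK2 (N-terminal) and XIAP-NanoLuc (C-terminal) full-length fusions, grown 24 h at 37° C. in Opti-MEM with 4% FBS. Compounds tested as 10-point 3-fold dilutions; NanoBRET ratio taken as 618 nm acceptor over 460 nm donor emission.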

[3] = Homo sapiens, HEK-Blue hNOD2, HEK-Blue-hNOD2 cells

T2 sequence (O43353 whole entry, the tested form may be a part): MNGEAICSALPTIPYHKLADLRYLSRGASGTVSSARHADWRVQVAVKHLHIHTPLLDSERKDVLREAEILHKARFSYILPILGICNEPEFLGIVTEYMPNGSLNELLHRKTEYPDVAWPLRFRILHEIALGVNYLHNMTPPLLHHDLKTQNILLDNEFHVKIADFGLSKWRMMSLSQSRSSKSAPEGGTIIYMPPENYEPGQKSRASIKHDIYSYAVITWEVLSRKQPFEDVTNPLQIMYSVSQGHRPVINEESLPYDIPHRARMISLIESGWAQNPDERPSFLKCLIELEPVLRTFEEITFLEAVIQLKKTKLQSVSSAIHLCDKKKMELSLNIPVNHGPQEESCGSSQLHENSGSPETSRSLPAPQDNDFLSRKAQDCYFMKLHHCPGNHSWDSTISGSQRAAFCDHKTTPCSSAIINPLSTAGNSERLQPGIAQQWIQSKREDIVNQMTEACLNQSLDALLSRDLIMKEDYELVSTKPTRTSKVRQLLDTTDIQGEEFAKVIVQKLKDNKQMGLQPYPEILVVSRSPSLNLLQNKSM
T1 sequence (O43353 1-299 limits assumed): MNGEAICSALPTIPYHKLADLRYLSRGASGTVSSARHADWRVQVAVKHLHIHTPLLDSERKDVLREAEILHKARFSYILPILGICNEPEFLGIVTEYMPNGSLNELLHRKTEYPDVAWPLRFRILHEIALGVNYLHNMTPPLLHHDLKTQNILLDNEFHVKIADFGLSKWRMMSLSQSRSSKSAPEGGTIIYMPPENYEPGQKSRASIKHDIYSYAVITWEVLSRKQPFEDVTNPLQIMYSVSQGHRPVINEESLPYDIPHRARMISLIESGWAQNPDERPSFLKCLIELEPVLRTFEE

pIC50 (RIPK2 enzyme) | pIC50 (human NOD2 signaling; [3]) | pIC50 ([1]; Homo sapiens, 16 h) | pIC50 [2] | pIC50 (human NOD2 signaling; HEK-Blue-hNOD2 cells) | pIC50 ([1]; 16 hours) | SMILES
> 8.60 | 8.40 | 7.62 | 7.03 |  |  | CC(C)(C)n1cc(NC(=O)Cc2ccc(Oc3ccnc4ccc(S(C)(=N)=O)cc34)c(Cl)c2)cn1 (single isomer, unassigned) [Compound 197, N-(1-(tert-butyl)-1H-pyrazol-4-yl)-2-(3-chloro-4-((6-(S-methylsulfonimidoyl)quinolin-4-yl)oxy)phenyl)acetamide]
> 8.60 | 8.49 | 7.26 | 7.41 |  |  | Cc1cc(C(C)C(=O)Nc2cnn(C(C)(C)C)c2)ccc1Oc1ccnc2ccc(S(C)(=O)=O)cc12 (single isomer, unassigned) [Compound 215, N-(1-(tert-butyl)-1H-pyrazol-4-yl)-2-(3-methyl-4-((6-(methylsulfonyl)quinolin-4-yl)oxy)phenyl)propanamide]
> 8.60 | 9.70 | 8.22 | 8.10 |  |  | Cc1c(Oc2ccnc3ccc(S(=N)(=O)C4CC4)cc23)ccc(CC(=O)Nc2cnn(C(C)(C)C)c2)c1F (single isomer, unassigned) [Compound 441, N-(1-(tert-butyl)-1H-pyrazol-4-yl)-2-(4-((6-(cyclopropanesulfonimidoyl)quinolin-4-yl)oxy)-2-fluoro-3-methylphenyl)acetamide]
> 8.60 |  |  | 8.52 | 9.70 | 8.15 | Cc1c(Oc2ccnc3ccc(S(=N)(=O)C4CC4)cc23)ccc(CC(=O)Nc2cnn(C(C)(C)C)c2)c1F (single isomer, unassigned) [Compound 442, N-(1-(tert-butyl)-1H-pyrazol-4-yl)-2-(4-((6-(cyclopropanesulfonimidoyl)quinolin-4-yl)oxy)-2-fluoro-3-methylphenyl)acetamide]
> 8.60 | 8.92 | 8.52 | 7.11 |  |  | Cc1cc(CC(=O)Nc2cnn(C(C)(C)C)c2)ccc1Oc1ccnc2ccc(S(=N)(=O)C3CC3)cc12 (single isomer, unassigned) [Compound 543, N-(1-(tert-butyl)-1H-pyrazol-4-yl)-2-(4-((6-(cyclopropanesul-fonimidoyl)quinolin-4-yl)oxy)-3-methylphenyl) acetamide]
> 8.60 |  |  | 6.91 | 8.70 | 8.35 | Cc1cc(CC(=O)Nc2cnn(C(C)(C)C)c2)ccc1Oc1ccnc2ccc(S(=N)(=O)C3CC3)cc12 (single isomer, unassigned) [Compound 544, N-(1-(tert-butyl)-1H-pyrazol-4-yl)-2-(4-((6-(cyclopropanesul-fonimidoyl)quinolin-4-yl)oxy)-3-methylphenyl) acetamide]
> 8.60 | 8.74 | 8.23 | 6.74 |  |  | CCS(=N)(=O)c1ccc2nccc(Oc3ccc(CC(=O)Nc4cnn(C(C)(C)C)c4)cc3C)c2c1 (single isomer, unassigned) [Compound 545, N-(1-(tert-butyl)-1H-pyrazol-4-yl)-2-(4-((6-(ethylsulfonimidoyl)quinolin-4-yl)oxy)-3-methylphenyl) acetamide]
> 8.60 |  |  | 6.69 | 8.85 | 8.40 | CCS(=N)(=O)c1ccc2nccc(Oc3ccc(CC(=O)Nc4cnn(C(C)(C)C)c4)cc3C)c2c1 (single isomer, unassigned) [Compound 546, N-(1-(tert-butyl)-1H-pyrazol-4-yl)-2-(4-((6-(ethylsulfonimidoyl)quinolin-4-yl)oxy)-3-methylphenyl) acetamide]
8.12 | 7.94 | 6.99 | 8.22 |  |  | COc1ccc2ncnc(Oc3ccc(CC(=O)Nc4cnn(C(C)(C)C)c4)c(F)c3)c2c1 [Compound 8, N-(1-(tert-butyl)-1H-pyrazol-4-yl)-2-(2-fluoro-4-((6-methoxy-quinazolin-4-yl)oxy)phenyl) acetamide]
7.98 | 7.66 | 7.92 | 6.84 |  |  | CN1CCC(Oc2ccc3ncnc(Oc4cnc(CC(=O)Nc5cnn(C(C)(C)C)c5)c(F)c4)c3c2)CC1 [Compound 20, N-(1-(tert-butyl)-1H-pyrazol-4-yl)-2-(3-fluoro-5-((6-((1-methylpiperidin-4-yl)oxy)quinazolin-4-yl)oxy)pyridin-2-yl)acetamide]
8.32 | 7.41 | 8.30 | 6.66 |  |  | CC(C)(C)n1cc(NC(=O)Cc2ccc(Oc3ccnc4ccc(S(C)(=N)=O)cc34)cc2F)cn1 (stereo not shown) [Compound 43, N-(1-(tert-butyl)-1H-pyrazol-4-yl)-2-(2-fluoro-4-((6-(S-methylsulfonimidoyl)quinolin-4-yl)oxy)phenyl)acetamide]
7.87 | 7.49 | 8.15 | 7.43 |  |  | CN1CCC(Oc2ccc3nccc(Oc4cnc(CC(=O)Nc5cnn(C(C)(C)C)c5)c(F)c4)c3c2)CC1 [Compound 78, N-(1-(tert-butyl)-1H-pyrazol-4-yl)-2-(3-fluoro-5-((6-((1-methylpiperidin-4-yl)oxy)quinolin-4-yl)oxy)pyridin-2-yl)acetamide]
> 8.60 | 8.18 | 7.40 | 6.88 |  |  | CC(C)(C)n1cc(NC(=O)Cc2ccc(Oc3ccnc4ccc(S(C)(=O)=O)cc34)c(C(F)F)c2)cn1 [Compound 92, N-(1-(tert-butyl)-1H-pyrazol-4-yl)-2-(3-(difluoromethyl)-4-((6-(methylsulfonyl)quinolin-4-yl)oxy)phenyl)acetamide]
> 8.60 | 9.70 | 8.70 | 8.30 |  |  | Cc1c(Oc2ccnc3ccc(S(=O)(=O)C4CC4)cc23)ccc(CC(=O)Nc2cnn(C(C)(C)C)c2)c1F [Compound 174, N-(1-(tert-butyl)-1H-pyrazol-4-yl)-2-(4-((6-(cyclopropylsulfonyl)quinolin-4-yl)oxy)-2-fluoro-3-methylphenyl)acetamide]
> 8.60 | 8.89 | 8.10 |  |  |  | CCS(=O)(=O)c1ccc2nccc(Oc3cc(F)c(CC(=O)Nc4cnn(C(C)(C)C)c4)cc3C)c2c1 [Compound 306, N-(1-(tert-butyl)-1H-pyrazol-4-yl)-2-(4-((6-(ethylsulfonyl)quinolin-4-yl)oxy)-2-fluoro-5-methylphenyl)acetamide]
> 8.60 | 9.05 |  | 7.53 |  |  | CNC(=O)c1cc2c(Oc3c(C)cc(CC(=O)Nc4cnn(C(C)(C)C)c4)cc3Cl)ccnc2cc1F [Compound 585, 4-(4-(2-((1-(tert-butyl)-1H-pyrazol-4-yl)amino)-2-oxoethyl)-2-chloro-6-methylphenoxy)-7-fluoro-N-methylquinoline-6-carboxamide]

SMILES | pIC50 (RIPK2 enzyme) | pIC50 (human NOD2 signaling; [3]) | pIC50 ([1]; Homo sapiens, 16 h) | pIC50 [2] | pIC50 (human NOD2 signaling; HEK-Blue-hNOD2 cells) | pIC50 ([1]; 16 hours)
Cc1cc(CC(=O)Nc2cnn(C(C)(C)C)c2)ccc1Oc1ccnc2ccc(OC3CCN(C)CC3)cc12 [Compound 82, N-(1-(tert-butyl)-1H-pyrazol-4-yl)-2-(3-methyl-4-((6-((1-methyl-piperidin-4-yl)oxy)quinolin-4-yl)oxy)phenyl) acetamide] | > 8.60 |  |  | 8.22 | 8.72 | 8.40
Cc1cc(CC(=O)Nc2cnn(C(C)(C)C)c2)ccc1Oc1ncnc2ccc(OC3CCN(C)CC3)cc12 [Compound 84, N-(1-(tert-butyl)-1H-pyrazol-4-yl)-2-(3-methyl-4-((6-((1-methyl-piperidin-4-yl)oxy)quinazolin-4-yl)oxy)phenyl) acetamide] | 8.03 |  |  | 7.43 | 7.72 | 8.40
